# Reference: ChEMBL document CHEMBL1201862, “PubChem BioAssay data set” (2004)
#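 In this assay, cells in 96-well plates receive the compound at five concentrations for 48 hours. Endpoints are linearly interpolated between the surrounding concentrations. At the GI50, growth is halved.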 The source made the active and inactive calls. No stated cut-off is given here; in the data, active = GI50 up to about 1.1 µM and inactive = higher.
# Assays:
# Test in all cases: inhibition of tumour cell growth, NCI panel, 48 h
# NCI-H23 = tested on: NCI-H23
# ACHN = tested on: ACHN
# OVCAR-5 = tested on: OVCAR-5
# MDA-MB-231 = tested on: MDA-MB-231
# NCI/ADR-RES = tested on: NCI/ADR-RES
# UACC-257 = tested on: UACC-257
# M14 = tested on: M14
# T47D = tested on: T47D
# HCC 2998 = tested on: HCC 2998
# HCT-116 = tested on: HCT-116
# SNB-19 = tested on: SNB-19
# SF-295 = tested on: SF-295
# SN12C = tested on: SN12C
# HCT-15 = tested on: HCT-15
# Malme-3M = tested on: Malme-3M
# A549 = tested on: A549
# SK-OV-3 = tested on: SK-OV-3
# DU-145 = tested on: DU-145
# SF-539 = tested on: SF-539
# OVCAR-4 = tested on: OVCAR-4
# NCI-H460 = tested on: NCI-H460
# A498 = tested on: A498
# SK-MEL-2 = tested on: SK-MEL-2
# MDA-MB-435 = tested on: MDA-MB-435
# UACC-62 = tested on: UACC-62
# SF-268 = tested on: SF-268
# SK-MEL-28 = tested on: SK-MEL-28
# HOP-92 = tested on: HOP-92
# NCI-H522 = tested on: NCI-H522
# K562 = tested on: K562
# MCF7 = tested on: MCF7
# CAKI-1 = tested on: CAKI-1
# MDA-N = tested on: MDA-N
# KM12 = tested on: KM12
# SNB-75 = tested on: SNB-75
# UO-31 = tested on: UO-31
# MOLT-4 = tested on: MOLT-4
# RPMI-8226 = tested on: RPMI-8226
# OVCAR-8 = tested on: OVCAR-8
# U-251 = tested on: U-251
# IGROV-1 = tested on: IGROV-1
# HOP-62 = tested on: HOP-62
# SR = tested on: SR
# RXF 393 = tested on: RXF 393
# EKVX = tested on: EKVX
# SW-620 = tested on: SW-620
# CCRF-CEM = tested on: CCRF-CEM
# COLO 205 = tested on: COLO 205
# OVCAR-3 = tested on: OVCAR-3
# NCI-H226 = tested on: NCI-H226
# 786-0 = tested on: 786-0
# BT-549 = tested on: BT-549
# PC-3 = tested on: PC-3
# Hs-578T = tested on: Hs-578T
# TK-10 = tested on: TK-10
# HL-60 = tested on: HL-60
# LOX IMVI = tested on: LOX IMVI
# SK-MEL-5 = tested on: SK-MEL-5
# HT-29 = tested on: HT-29
smiles,measurement,setting,value
Nc1nc(Cl)cc(NC23CC4CC(CC(C4)C2)C3)n1,GI50,NCI-H23,34 µM (inactive)
same,GI50,ACHN,> 100 µM (inactive)
same,GI50,OVCAR-5,> 100 µM (inactive)
same,GI50,MDA-MB-231,94.6 µM (inactive)
same,GI50,NCI/ADR-RES,42.9 µM (inactive)
same,GI50,UACC-257,> 100 µM (inactive)
same,GI50,M14,> 100 µM (inactive)
same,GI50,T47D,> 100 µM (inactive)
same,GI50,HCC 2998,> 100 µM (inactive)
same,GI50,HCT-116,78.2 µM (inactive)
same,GI50,SNB-19,> 100 µM (inactive)
same,GI50,SF-295,85.5 µM (inactive)
same,GI50,SN12C,> 100 µM (inactive)
same,GI50,HCT-15,40.6 µM
same,GI50,Malme-3M,44.1 µM (inactive)
same,GI50,A549,98.6 µM (inactive)
same,GI50,SK-OV-3,> 100 µM (inactive)
same,GI50,DU-145,> 100 µM (inactive)
same,GI50,SF-539,47.9 µM (inactive)
same,GI50,OVCAR-4,> 100 µM (inactive)
same,GI50,NCI-H460,> 100 µM (inactive)
same,GI50,A498,> 100 µM (inactive)
same,GI50,SK-MEL-2,19.4 µM (inactive)
same,GI50,MDA-MB-435,> 100 µM (inactive)
same,GI50,UACC-62,> 100 µM (inactive)
same,GI50,SF-268,47.1 µM (inactive)
same,GI50,SK-MEL-28,> 100 µM (inactive)
same,GI50,HOP-92,> 100 µM (inactive)
same,GI50,NCI-H522,31 µM (inactive)
same,GI50,K562,> 100 µM (inactive)
same,GI50,MCF7,85.9 µM (inactive)
same,GI50,CAKI-1,> 100 µM (inactive)
same,GI50,MDA-N,> 100 µM (inactive)
same,GI50,KM12,> 100 µM (inactive)
same,GI50,SNB-75,26.2 µM (inactive)
same,GI50,UO-31,> 100 µM (inactive)
same,GI50,MOLT-4,> 100 µM (inactive)
same,GI50,RPMI-8226,> 100 µM (inactive)
same,GI50,OVCAR-8,90.6 µM (inactive)
same,GI50,U-251,32 µM (inactive)
same,GI50,IGROV-1,57.3 µM (inactive)
same,GI50,HOP-62,> 100 µM (inactive)
same,GI50,SR,> 100 µM (inactive)
same,GI50,RXF 393,> 100 µM (inactive)
same,GI50,EKVX,> 100 µM (inactive)
same,GI50,SW-620,> 100 µM (inactive)
same,GI50,CCRF-CEM,> 100 µM (inactive)
same,GI50,COLO 205,81.8 µM (inactive)
same,GI50,OVCAR-3,> 100 µM (inactive)
same,GI50,NCI-H226,76.2 µM (inactive)
same,GI50,786-0,> 100 µM (inactive)
same,GI50,BT-549,61.7 µM (inactive)
same,GI50,PC-3,29.2 µM (inactive)
CC(C)(Br)C(=O)N1CCN(C(c2ccccc2)c2ccccc2)CC1,GI50,NCI-H23,> 100 µM (inactive)
same,GI50,ACHN,> 100 µM (inactive)
same,GI50,OVCAR-5,> 100 µM (inactive)
same,GI50,Hs-578T,22.6 µM (inactive)
same,GI50,MDA-MB-231,> 100 µM (inactive)
same,GI50,NCI/ADR-RES,> 100 µM (inactive)
same,GI50,UACC-257,41.9 µM (inactive)
same,GI50,M14,> 100 µM (inactive)
same,GI50,HCC 2998,> 100 µM (inactive)
same,GI50,HCT-116,32.2 µM (inactive)
same,GI50,TK-10,> 100 µM (inactive)
same,GI50,SNB-19,> 100 µM (inactive)
same,GI50,HL-60,21.5 µM (inactive)
same,GI50,SF-295,> 100 µM (inactive)
same,GI50,SN12C,84.9 µM (inactive)
same,GI50,HCT-15,64.9 µM
same,GI50,Malme-3M,> 100 µM (inactive)
same,GI50,A549,> 100 µM (inactive)
same,GI50,SK-OV-3,> 100 µM (inactive)
same,GI50,DU-145,50.6 µM (inactive)
same,GI50,SF-539,> 100 µM (inactive)
same,GI50,OVCAR-4,> 100 µM (inactive)
same,GI50,NCI-H460,> 100 µM (inactive)
same,GI50,A498,> 100 µM (inactive)
same,GI50,LOX IMVI,> 100 µM (inactive)
same,GI50,SK-MEL-2,> 100 µM (inactive)
same,GI50,MDA-MB-435,> 100 µM (inactive)
same,GI50,UACC-62,> 100 µM (inactive)
same,GI50,SF-268,64 µM (inactive)
same,GI50,SK-MEL-28,> 100 µM (inactive)
same,GI50,HOP-92,68.4 µM (inactive)
same,GI50,NCI-H522,85.7 µM (inactive)
same,GI50,K562,> 100 µM (inactive)
same,GI50,MCF7,24.3 µM (inactive)
same,GI50,CAKI-1,84.1 µM (inactive)
same,GI50,MDA-N,> 100 µM (inactive)
same,GI50,KM12,16.2 µM (inactive)
same,GI50,SNB-75,> 100 µM (inactive)
same,GI50,UO-31,68.7 µM (inactive)
same,GI50,SK-MEL-5,61.4 µM (inactive)
same,GI50,MOLT-4,30.1 µM (inactive)
same,GI50,OVCAR-8,> 100 µM (inactive)
same,GI50,U-251,> 100 µM (inactive)
same,GI50,IGROV-1,> 100 µM (inactive)
same,GI50,HOP-62,43.5 µM (inactive)
same,GI50,SR,66.2 µM (inactive)
same,GI50,RXF 393,31.3 µM (inactive)
same,GI50,EKVX,40.6 µM (inactive)
same,GI50,SW-620,> 100 µM (inactive)
same,GI50,CCRF-CEM,49.2 µM (inactive)
same,GI50,COLO 205,> 100 µM (inactive)
same,GI50,OVCAR-3,19.8 µM (inactive)
same,GI50,HT-29,39.5 µM (inactive)
same,GI50,NCI-H226,95.1 µM (inactive)
same,GI50,786-0,> 100 µM (inactive)
same,GI50,BT-549,> 100 µM (inactive)
same,GI50,PC-3,50.1 µM (inactive)
CSc1ccc2c(cc1=O)[C@@H](NC(=O)c1ccc(N)cc1)CCc1cc(O)c(O)c(O)c1-2,GI50,ACHN,21.2 µM (inactive)
same,GI50,OVCAR-5,23.4 µM (inactive)
same,GI50,NCI/ADR-RES,28.5 µM (inactive)
same,GI50,UACC-257,18.3 µM (inactive)
same,GI50,T47D,66.1 µM (inactive)
same,GI50,HCC 2998,14.5 µM (inactive)
same,GI50,SNB-19,25.1 µM (inactive)
same,GI50,SF-295,15.7 µM (inactive)
same,GI50,SN12C,27.9 µM (inactive)
same,GI50,HCT-15,17.9 µM
same,GI50,A549,23.6 µM (inactive)
same,GI50,SK-OV-3,> 100 µM (inactive)
same,GI50,DU-145,49.1 µM (inactive)
same,GI50,SF-539,3.85 µM (inactive)
same,GI50,OVCAR-4,22 µM (inactive)
same,GI50,NCI-H460,12 µM (inactive)
same,GI50,A498,46.2 µM (inactive)
same,GI50,MDA-MB-435,7.85 µM (inactive)
same,GI50,SF-268,13.6 µM (inactive)
same,GI50,HOP-92,41.4 µM (inactive)
same,GI50,NCI-H522,7.67 µM (inactive)
same,GI50,K562,9.66 µM (inactive)
same,GI50,UO-31,26 µM (inactive)
same,GI50,MOLT-4,22.6 µM (inactive)
same,GI50,RPMI-8226,22.3 µM (inactive)
same,GI50,OVCAR-8,22 µM (inactive)
same,GI50,U-251,25.4 µM (inactive)
same,GI50,IGROV-1,25 µM (inactive)
same,GI50,HOP-62,15.1 µM (inactive)
same,GI50,EKVX,30.1 µM (inactive)
same,GI50,786-0,16.4 µM (inactive)
same,GI50,BT-549,16 µM (inactive)
Cc1ccc(-c2c(C#N)c(N)[nH]c(=S)c2C#N)cc1,GI50,NCI-H23,39.7 µM (inactive)
same,GI50,ACHN,79.3 µM (inactive)
same,GI50,OVCAR-5,> 100 µM (inactive)
same,GI50,Hs-578T,18.5 µM (inactive)
same,GI50,MDA-MB-231,34.8 µM (inactive)
same,GI50,NCI/ADR-RES,31.7 µM (inactive)
same,GI50,UACC-257,34.5 µM (inactive)
same,GI50,M14,43.6 µM (inactive)
same,GI50,HCC 2998,26.7 µM (inactive)
same,GI50,HCT-116,32.4 µM (inactive)
same,GI50,TK-10,73.6 µM (inactive)
same,GI50,SNB-19,77.1 µM (inactive)
same,GI50,HL-60,17.3 µM (inactive)
same,GI50,SF-295,32.8 µM (inactive)
same,GI50,SN12C,22.3 µM (inactive)
same,GI50,HCT-15,38.7 µM
same,GI50,Malme-3M,26.4 µM (inactive)
same,GI50,A549,58.5 µM (inactive)
same,GI50,DU-145,50.8 µM (inactive)
same,GI50,SF-539,> 100 µM (inactive)
same,GI50,OVCAR-4,54.7 µM (inactive)
same,GI50,NCI-H460,47.6 µM (inactive)
same,GI50,A498,35.2 µM (inactive)
same,GI50,LOX IMVI,42.2 µM (inactive)
same,GI50,SK-MEL-2,25.2 µM (inactive)
same,GI50,MDA-MB-435,23.3 µM (inactive)
same,GI50,UACC-62,35.4 µM (inactive)
same,GI50,SF-268,31.9 µM (inactive)
same,GI50,SK-MEL-28,26.2 µM (inactive)
same,GI50,HOP-92,31.4 µM (inactive)
same,GI50,NCI-H522,19.4 µM (inactive)
same,GI50,K562,21.1 µM (inactive)
same,GI50,MCF7,32 µM (inactive)
same,GI50,CAKI-1,49.8 µM (inactive)
same,GI50,MDA-N,18.5 µM (inactive)
same,GI50,KM12,40.8 µM (inactive)
same,GI50,UO-31,40.3 µM (inactive)
same,GI50,SK-MEL-5,23.4 µM (inactive)
same,GI50,MOLT-4,16.6 µM (inactive)
same,GI50,RPMI-8226,17.7 µM (inactive)
same,GI50,OVCAR-8,46.3 µM (inactive)
same,GI50,U-251,49.1 µM (inactive)
same,GI50,IGROV-1,43.3 µM (inactive)
same,GI50,HOP-62,55 µM (inactive)
same,GI50,SR,22.2 µM (inactive)
same,GI50,RXF 393,18.7 µM (inactive)
same,GI50,EKVX,13.4 µM (inactive)
same,GI50,SW-620,13.6 µM (inactive)
same,GI50,COLO 205,24 µM (inactive)
same,GI50,OVCAR-3,35.2 µM (inactive)
same,GI50,HT-29,48.2 µM (inactive)
same,GI50,NCI-H226,23.9 µM (inactive)
same,GI50,786-0,26.1 µM (inactive)
same,GI50,BT-549,34.1 µM (inactive)
same,GI50,PC-3,33 µM (inactive)
